Patent US10654884B2 (Vitae Pharmaceuticals, Inc., priority 2014, dated 2020)
pIC50: −log10 of the molar value.

target: T1, human CD73 (Homo sapiens, UniProt P21589); experiment: Inhibition of 5′-Nucleotidase Activity of CD73 (Assay 1); format: biochemical; settings: Assay 1: IC50, inhibition of 5′-nucleotidase activity of CD73, human CD73 4 ng/ml, 50 μM CMP, 20 min at RT, malachite green readout
T1 construct: purchased R&D Systems 5795-EN-010
T1 sequence (P21589 27-549): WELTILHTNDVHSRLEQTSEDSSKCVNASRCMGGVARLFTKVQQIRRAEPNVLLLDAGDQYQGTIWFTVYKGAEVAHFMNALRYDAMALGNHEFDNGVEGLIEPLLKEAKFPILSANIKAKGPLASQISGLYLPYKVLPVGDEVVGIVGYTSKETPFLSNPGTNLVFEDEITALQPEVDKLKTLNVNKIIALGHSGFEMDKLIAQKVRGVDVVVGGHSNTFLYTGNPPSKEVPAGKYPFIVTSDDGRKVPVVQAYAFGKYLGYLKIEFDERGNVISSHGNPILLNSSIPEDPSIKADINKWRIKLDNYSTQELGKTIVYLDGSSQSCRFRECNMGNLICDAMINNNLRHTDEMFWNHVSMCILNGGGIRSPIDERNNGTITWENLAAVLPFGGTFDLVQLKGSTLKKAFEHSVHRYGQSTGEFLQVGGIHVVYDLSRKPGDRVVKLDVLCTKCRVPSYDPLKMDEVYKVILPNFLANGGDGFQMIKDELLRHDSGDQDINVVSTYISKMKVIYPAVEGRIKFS
Method: Inhibition of 5′-Nucleotidase Activity of CD73 (Assay 1)
Compounds of the present invention were tested for the ability to inhibit CD73 enzyme activity. Tested compounds were dissolved in DMSO (50× final concentration), and 3.2 μL of the solutions added to 96-well polystyrene plates. To these wells were added, 100 μL of human CD73 (R&D Systems Cat. No. 5795-EN-010) and 57 μL of cytidine-5′-monophosphate (CMP) solutions in assay buffer (25 mM Tris-HCl, pH 7.4, 0.005% Brij-35) were added to achieve final concentrations in the assay of 4 ng/ml CD73 and 50 μM of CMP. The assay mixture was incubated for 20 min at RT. The reaction was stopped by addition of 40 μL of malachite green reagent which was prepared by mixing together 10 ml 2M H2SO4, 2.5 ml of 15% ammonium molybdate and 0.2 ml of 11% Tween-20. The mixture was agitated vigorously for 10 min at RT, and absorbance at 620 nm was determined on a microplate spectrophotometer. […] The IC50 values were derived using a non-linear 4 parameter logistic model (XLFit software, IDBS) and correspond to the inflection points on dose-response curves.

| SMILES | pIC50 |
| --- | --- |
| CCNc1nc(Cl)nc2c1ncn2[C@@H]1O[C@H](CO[C@@](C)(C(=O)OCC)P(=O)(O)OCC)[C@@H](O)[C@H]1O (single isomer, unassigned) [Example 80] | < 6.00 |
| CCNc1nc(Cl)nc2c1ncn2[C@@H]1O[C@H](CO[C@](C)(C(=O)OCC)P(=O)(O)OCC)[C@@H](O)[C@H]1O (single isomer, unassigned) [Example 80a] | < 6.00 |

same assay, conditions: human CD73 4 ng/ml, 50 μM CMP, 20 min at RT, malachite green readout; read-out: Assay 1: IC50, inhibition of 5′-nucleotidase activity of CD73

| pIC50 | SMILES |
| --- | --- |
| > 7.00 | CCOC(=O)[C@@H](OC[C@H]1O[C@@H](n2cnc3c(N)nc(-c4ccccc4)nc32)[C@H](O)[C@@H]1O)P(=O)(O)O (single isomer, unassigned) [Example 40a] |
| < 6.00 | CCOC(=O)[C@@H](OC[C@H]1O[C@@H](n2cnc3c(N)nc(C4CC4)nc32)[C@H](O)[C@@H]1O)P(=O)(O)O (single isomer, unassigned) [Example 50a] |
| < 6.00 | CC(C)(C)OC(=O)[C@@H](OC[C@H]1O[C@@H](n2cnc3c(N)nc(CN)nc32)[C@H](O)[C@@H]1O)P(=O)(O)O (single isomer, unassigned) [Example 55a] |
| < 6.00 | CS(=O)(=O)C(OC[C@H]1O[C@@H](n2cnc3c(N)nc(Cl)nc32)[C@H](O)[C@@H]1O)P(=O)(O)O (single isomer, unassigned) [Example 10a] |
| < 6.00 | CCOC(=O)[C@@H](OC[C@H]1O[C@@H](n2cnc3c(N)nc(C4NCCO4)nc32)[C@H](O)[C@@H]1O)P(=O)(O)O (single isomer, unassigned) [Example 51b] |
| < 6.00 | CCOC(=O)[C@@H](OC[C@H]1O[C@@H](n2ccc(=O)n(C)c2=O)[C@H](O)[C@@H]1O)P(=O)(O)O (single isomer, unassigned) [Example 30a] |
| < 6.00 | Cn1c(=O)ccn([C@@H]2O[C@H](CO[C@@H](C(=O)O)P(=O)(O)O)[C@@H](O)[C@H]2O)c1=O (single isomer, unassigned) [Example 60] |
| < 6.00 | CNC(=O)C(OC[C@H]1O[C@@H](n2ccc(=O)n(C)c2=O)[C@H](O)[C@@H]1O)P(=O)(O)O (stereo partly drawn) [Example 31, (1-(((2R,3S,4R,5R)-3,4-dihydroxy-5-(3-methyl-2,4-dioxo-3,4-dihydropyrimidin-1(2H)-yl)tetrahydrofuran-2-yl)methoxy)-2-(methylamino)-2-oxoethyl)phosphonic Acid] |
| < 6.00 | Nc1ncnc2c1ncn2[C@@H]1O[C@H](COC(C(=O)O)C(=O)O)[C@@H](O)[C@H]1O [Example 8, 2-(((2R,3S,4R,5R)-5-(6-amino-9H-purin-9-yl)-3,4-dihydroxytetrahydrofuran-2-yl)methoxy)malonic acid] |
| < 6.00 | CCOC(=O)C(OC[C@H]1O[C@@H](n2cnc3cc(Cl)c(Cl)cc32)[C@H](O)[C@@H]1O)P(=O)(O)O (single isomer, unassigned) [Example 81] |
| < 6.00 | O=C(O)C(OC[C@H]1C[C@@H](n2cnc3cccc(Cl)c3c2=O)[C@H](O)[C@@H]1O)P(=O)(O)O (stereo partly drawn) [Example 71, 2-(((1R,2R,3S,4R)-4-(5-chloro-4-oxoquinazolin-3(4H)-yl)-2,3-dihydroxycyclopentyl)methoxy)-2-phosphonoacetic acid] |
| < 6.00 | CCOC(=O)C(OC[C@H]1O[C@@H](n2cnc3ccc(Cl)nc32)[C@H](O)[C@@H]1O)P(=O)(O)O (single isomer, unassigned) [Example 87a] |
| < 6.00 | CCOC(=O)C(OC[C@H]1O[C@@H](n2cnc3cc(Cl)c(Cl)cc32)[C@H](O)[C@@H]1O)P(=O)(O)O (single isomer, unassigned) [Example 81a] |
| < 6.00 | CCOC(=O)[C@@H](OC[C@H]1C[C@@H](n2cnc3cccc(C#N)c3c2=O)[C@H](O)[C@@H]1O)P(=O)(O)O (single isomer, unassigned) [Example 73a] |
| < 6.00 | CCOC(=O)[C@@H](OC[C@H]1C[C@@H](n2cnc3cccc(Cl)c3c2=O)[C@H](O)[C@@H]1O)P(=O)(O)O (single isomer, unassigned) [Example 70a] |
| < 6.00 | CCOC(=O)[C@@H](OC[C@H]1O[C@@H](n2cnc3c(N)nc(C(F)(F)F)nc32)[C@H](O)[C@@H]1O)P(=O)(O)O (single isomer, unassigned) [Example 42a] |
| < 6.00 | CCOC(=O)[C@@H](OC[C@H]1O[C@@H](n2cnc3c(N)nc(-c4cc(F)cc(F)c4)nc32)[C@H](O)[C@@H]1O)P(=O)(O)O (single isomer, unassigned) [Example 41a] |

| pIC50 | SMILES |
| --- | --- |
| < 6.00 | Nc1ncnc2c1ncn2[C@@H]1O[C@H](COC(C(=O)NO)P(=O)(O)O)[C@@H](O)[C@H]1O (stereo partly drawn) [Example 35, (1-(((2R,3S,4R,5R)-5-(6-amino-9H-purin-9-yl)-3,4-dihydroxytetrahydrofuran-2-yl)methoxy)-2-(hydroxyamino)-2-oxoethyl)phosphonic Acid] |
| < 6.00 | COC(=O)C(SC[C@H]1O[C@@H](n2cnc3c(N)ncnc32)[C@H](O)[C@@H]1O)P(=O)(O)O (stereo partly drawn) [Example 56, (1-((((2S,3S,4R,5R)-5-(6-amino-9H-purin-9-yl)-3,4-dihydroxytetrahydrofuran-2-yl)methyl)thio)-2-methoxy-2-oxoethyl)phosphonic Acid] |
| < 6.00 | CCNC(=O)C(OC[C@H]1C[C@@H](n2cnc3c(NCC)ncnc32)[C@H](O)[C@@H]1O)P(=O)(O)O (stereo partly drawn) [Example 75, (2-(ethylamino)-1-(((1R,2R,3S,4R)-4-(6-(ethylamino)-9H-purin-9-yl)-2,3-dihydroxycyclopentyl)methoxy)-2-oxoethyl)phosphonic Acid] |
| < 6.00 | Nc1ncnc2c1ncn2[C@@H]1O[C@H](CO[C@@H](CO)P(=O)(O)O)[C@@H](O)[C@H]1O (single isomer, unassigned) [Example 57] |
| < 6.00 | Cn1c(=O)ccn([C@@H]2O[C@H](CO[C@H](C(=O)O)P(=O)(O)O)[C@@H](O)[C@H]2O)c1=O (single isomer, unassigned) [Example 60a] |
| < 6.00 | CCOC(=O)[C@@H](OC[C@H]1C[C@@H](n2cnc3cccc(Br)c3c2=O)[C@H](O)[C@@H]1O)P(=O)(O)O (single isomer, unassigned) [Example 72a] |
| < 6.00 | CC(C)CS(=O)(=O)[C@@H](OC[C@H]1O[C@@H](n2cnc3c(N)nc(Cl)nc32)[C@H](O)[C@@H]1O)P(=O)(O)O (single isomer, unassigned) [Example 13a] |
| < 6.00 | Nc1ncnc2c1ncn2[C@@H]1O[C@H](CO[C@H](CO)P(=O)(O)O)[C@@H](O)[C@H]1O (single isomer, unassigned) [Example 57a] |
| < 6.00 | CCNC(=O)C(OC[C@H]1O[C@@H](n2ccc(=O)n(C)c2=O)[C@H](O)[C@@H]1O)P(=O)(O)O (stereo partly drawn) [Example 32, (1-(((2R,3S,4R,5R)-3,4-dihydroxy-5-(3-methyl-2,4-dioxo-3,4-dihydropyrimidin-1(2H)-yl)tetrahydrofuran-2-yl)methoxy)-2-(ethylamino)-2-oxoethyl)phosphonic Acid] |
| < 6.00 | CCOC(=O)[C@@H](OC[C@H]1O[C@@H](n2cnc3c(N)nc(CC(C)C)nc32)[C@H](O)[C@@H]1O)P(=O)(O)O (single isomer, unassigned) [Example 46a] |
| < 6.00 | CCOC(=O)[C@@H](OC[C@@H]1O[C@H](n2cnc3c(N)nc(C)nc32)[C@@H](O)[C@H]1O)P(=O)(O)O (single isomer, unassigned) [Example 37a] |
| 6.00 to 7.00 | CCOC(=O)[C@@](CC(=O)O)(OC[C@H]1O[C@@H](n2cnc3c(N)nc(F)nc32)[C@H](O)[C@@H]1O)P(=O)(O)O (single isomer, unassigned) [Example 79a] |
| < 6.00 | O=C(O)C(OC[C@H]1C[C@@H](n2cnc3cccc(Cl)c3c2=O)[C@H](O)[C@@H]1O)C(=O)O [Example 74, 2-(((1R,2R,3S,4R)-4-(5-chloro-4-oxoquinazolin-3(4H)-yl)-2,3-dihydroxycyclopentyl)methoxy)malonic acid] |
| < 6.00 | CCCS(=O)(=O)[C@@H](OC[C@H]1O[C@@H](n2cnc3c(N)nc(Cl)nc32)[C@H](O)[C@@H]1O)P(=O)(O)O (single isomer, unassigned) [Example 12a] |
| < 6.00 | CC(C)(C)OC(=O)[C@H](OC[C@H]1O[C@@H](n2cnc3c(N)nc(CN)nc32)[C@H](O)[C@@H]1O)P(=O)(O)O (single isomer, unassigned) [Example 55] |
| > 7.00 | Nc1nc(Cl)nc2c1ncn2[C@@H]1O[C@H](COC(C(=O)O)P(=O)(O)O)[C@@H](O)[C@H]1O (single isomer, unassigned) [Example 61a] |
